Measured values reported in patent US20260049077A1, “Neurotrophic Receptor Tyrosine Kinase (NTRK) Inhibitors and Methods Using Same” (Baylor College of Medicine, priority 2022, published 2026).
“Also recorded” adds a separate entry of the source. Read-outs that look alike come from different tables or passages of the source.

Columns and labels:
[1] = molecular target: WEE1 (Homo sapiens (Human), UniProt P30291); experiment: Promega K192 cell-based NanoBRET kinase occupancy assay
Protocol: (§1) Similarly, the selectivity of CDD-3031 for NTRK kinases was evaluated in a kinase occupancy assay (Promega K192 cell-based NanoBRET assay) using 192 kinases (Table 4).

[2] = molecular target: MAP3K19 (Homo sapiens (Human), UniProt Q56UN5); experiment: as above
Chain of MAP3K19 (Q56UN5 whole entry): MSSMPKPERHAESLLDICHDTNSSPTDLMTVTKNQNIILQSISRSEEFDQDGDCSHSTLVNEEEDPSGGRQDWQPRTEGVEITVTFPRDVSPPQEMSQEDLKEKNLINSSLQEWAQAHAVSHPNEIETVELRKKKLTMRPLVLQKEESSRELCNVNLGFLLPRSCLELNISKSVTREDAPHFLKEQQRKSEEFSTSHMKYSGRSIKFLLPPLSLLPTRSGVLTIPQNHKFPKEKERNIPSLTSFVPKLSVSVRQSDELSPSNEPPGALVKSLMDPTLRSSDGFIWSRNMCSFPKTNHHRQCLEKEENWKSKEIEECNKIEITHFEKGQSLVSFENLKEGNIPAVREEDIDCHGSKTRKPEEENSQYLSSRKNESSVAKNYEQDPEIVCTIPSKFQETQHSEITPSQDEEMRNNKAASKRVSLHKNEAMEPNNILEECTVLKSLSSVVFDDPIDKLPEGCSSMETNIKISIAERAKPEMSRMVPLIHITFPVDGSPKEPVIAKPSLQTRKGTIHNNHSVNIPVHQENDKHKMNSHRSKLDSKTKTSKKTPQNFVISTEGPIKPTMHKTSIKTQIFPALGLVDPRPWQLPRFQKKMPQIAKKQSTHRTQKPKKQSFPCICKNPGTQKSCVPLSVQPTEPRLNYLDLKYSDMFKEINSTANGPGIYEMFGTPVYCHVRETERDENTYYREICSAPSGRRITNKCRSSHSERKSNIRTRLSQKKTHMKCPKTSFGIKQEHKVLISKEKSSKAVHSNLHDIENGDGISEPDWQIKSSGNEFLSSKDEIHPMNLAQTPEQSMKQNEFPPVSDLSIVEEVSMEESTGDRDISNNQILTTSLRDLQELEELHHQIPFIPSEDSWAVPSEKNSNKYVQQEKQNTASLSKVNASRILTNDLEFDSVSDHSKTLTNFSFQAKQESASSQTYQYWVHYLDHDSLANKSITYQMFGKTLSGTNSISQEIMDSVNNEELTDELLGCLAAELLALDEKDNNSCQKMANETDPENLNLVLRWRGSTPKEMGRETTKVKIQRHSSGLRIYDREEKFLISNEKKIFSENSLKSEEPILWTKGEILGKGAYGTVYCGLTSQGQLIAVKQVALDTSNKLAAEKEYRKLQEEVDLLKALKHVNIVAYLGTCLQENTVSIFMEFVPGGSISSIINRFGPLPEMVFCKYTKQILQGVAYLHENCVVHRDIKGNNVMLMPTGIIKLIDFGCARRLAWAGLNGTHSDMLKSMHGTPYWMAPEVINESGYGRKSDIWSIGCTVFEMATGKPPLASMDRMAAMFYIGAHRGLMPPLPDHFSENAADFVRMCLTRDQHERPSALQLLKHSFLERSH
Protocol: as §1

[3] = molecular target: CDKL1 (Homo sapiens (Human), UniProt Q00532); experiment: as above
Chain of CDKL1 (Q00532 whole entry): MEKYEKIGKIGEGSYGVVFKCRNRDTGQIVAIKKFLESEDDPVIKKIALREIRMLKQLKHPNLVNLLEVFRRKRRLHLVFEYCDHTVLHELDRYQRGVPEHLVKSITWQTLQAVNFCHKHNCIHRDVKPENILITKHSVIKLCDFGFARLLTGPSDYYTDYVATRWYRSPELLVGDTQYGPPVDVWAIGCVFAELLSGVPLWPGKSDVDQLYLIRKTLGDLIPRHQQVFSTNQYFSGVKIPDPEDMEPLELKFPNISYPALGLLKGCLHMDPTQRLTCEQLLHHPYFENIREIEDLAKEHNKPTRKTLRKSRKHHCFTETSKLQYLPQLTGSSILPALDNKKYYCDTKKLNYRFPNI
Protocol: as §1

[4] = molecular target: CSNK1A1L (Homo sapiens (Human), UniProt Q8N752); experiment: as above
Chain of CSNK1A1L (Q8N752 whole entry): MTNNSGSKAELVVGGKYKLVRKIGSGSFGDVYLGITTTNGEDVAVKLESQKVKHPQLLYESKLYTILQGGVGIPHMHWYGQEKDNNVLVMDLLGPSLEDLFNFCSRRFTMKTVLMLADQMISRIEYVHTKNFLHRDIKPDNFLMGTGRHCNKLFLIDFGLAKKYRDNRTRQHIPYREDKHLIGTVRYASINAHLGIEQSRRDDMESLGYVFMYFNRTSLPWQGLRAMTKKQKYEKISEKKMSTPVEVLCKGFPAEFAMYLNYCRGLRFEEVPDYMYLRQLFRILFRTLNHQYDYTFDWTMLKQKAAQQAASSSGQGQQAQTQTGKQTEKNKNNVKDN
Protocol: as §1

[5] = molecular target: STK11 (Homo sapiens (Human), UniProt Q15831); experiment: as above
Chain of STK11 (Q15831 whole entry): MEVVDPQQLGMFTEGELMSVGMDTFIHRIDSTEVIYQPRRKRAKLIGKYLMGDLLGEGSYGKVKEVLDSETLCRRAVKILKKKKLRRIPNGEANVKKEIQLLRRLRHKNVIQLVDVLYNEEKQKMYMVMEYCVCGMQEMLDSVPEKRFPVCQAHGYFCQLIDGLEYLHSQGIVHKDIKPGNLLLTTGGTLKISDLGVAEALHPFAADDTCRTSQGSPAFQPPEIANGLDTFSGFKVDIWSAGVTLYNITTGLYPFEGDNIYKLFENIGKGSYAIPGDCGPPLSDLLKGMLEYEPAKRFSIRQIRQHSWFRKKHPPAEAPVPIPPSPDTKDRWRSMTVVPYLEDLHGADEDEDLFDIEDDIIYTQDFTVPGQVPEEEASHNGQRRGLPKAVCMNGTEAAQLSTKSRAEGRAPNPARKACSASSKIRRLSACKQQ
Protocol: as §1

[6] = molecular target: AURKB (Homo sapiens (Human), UniProt Q96GD4); experiment: as above
Protocol: as §1

[7] = molecular target: ITK (Homo sapiens (Human), UniProt Q08881); experiment: as above
Chain of ITK (Q08881 whole entry): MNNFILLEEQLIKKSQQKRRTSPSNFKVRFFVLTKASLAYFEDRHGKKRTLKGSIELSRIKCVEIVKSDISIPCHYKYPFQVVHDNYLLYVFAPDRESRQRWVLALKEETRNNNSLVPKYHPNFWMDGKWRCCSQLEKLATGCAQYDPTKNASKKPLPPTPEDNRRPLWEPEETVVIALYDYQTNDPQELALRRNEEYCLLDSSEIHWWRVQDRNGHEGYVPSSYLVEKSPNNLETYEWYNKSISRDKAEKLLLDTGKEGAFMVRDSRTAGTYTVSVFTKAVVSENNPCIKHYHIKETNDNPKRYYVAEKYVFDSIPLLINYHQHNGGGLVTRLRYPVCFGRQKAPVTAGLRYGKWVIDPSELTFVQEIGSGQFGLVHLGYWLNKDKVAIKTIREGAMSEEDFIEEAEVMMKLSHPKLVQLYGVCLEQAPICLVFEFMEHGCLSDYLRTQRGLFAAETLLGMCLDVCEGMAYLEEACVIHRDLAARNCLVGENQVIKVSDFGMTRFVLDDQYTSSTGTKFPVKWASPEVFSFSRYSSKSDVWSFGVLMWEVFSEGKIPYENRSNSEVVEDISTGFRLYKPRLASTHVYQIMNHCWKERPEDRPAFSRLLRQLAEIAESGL
Protocol: as §1

[8] = molecular target: ULK2 (Homo sapiens (Human), UniProt Q8IYT8); experiment: as above
Chain of ULK2 (Q8IYT8 whole entry): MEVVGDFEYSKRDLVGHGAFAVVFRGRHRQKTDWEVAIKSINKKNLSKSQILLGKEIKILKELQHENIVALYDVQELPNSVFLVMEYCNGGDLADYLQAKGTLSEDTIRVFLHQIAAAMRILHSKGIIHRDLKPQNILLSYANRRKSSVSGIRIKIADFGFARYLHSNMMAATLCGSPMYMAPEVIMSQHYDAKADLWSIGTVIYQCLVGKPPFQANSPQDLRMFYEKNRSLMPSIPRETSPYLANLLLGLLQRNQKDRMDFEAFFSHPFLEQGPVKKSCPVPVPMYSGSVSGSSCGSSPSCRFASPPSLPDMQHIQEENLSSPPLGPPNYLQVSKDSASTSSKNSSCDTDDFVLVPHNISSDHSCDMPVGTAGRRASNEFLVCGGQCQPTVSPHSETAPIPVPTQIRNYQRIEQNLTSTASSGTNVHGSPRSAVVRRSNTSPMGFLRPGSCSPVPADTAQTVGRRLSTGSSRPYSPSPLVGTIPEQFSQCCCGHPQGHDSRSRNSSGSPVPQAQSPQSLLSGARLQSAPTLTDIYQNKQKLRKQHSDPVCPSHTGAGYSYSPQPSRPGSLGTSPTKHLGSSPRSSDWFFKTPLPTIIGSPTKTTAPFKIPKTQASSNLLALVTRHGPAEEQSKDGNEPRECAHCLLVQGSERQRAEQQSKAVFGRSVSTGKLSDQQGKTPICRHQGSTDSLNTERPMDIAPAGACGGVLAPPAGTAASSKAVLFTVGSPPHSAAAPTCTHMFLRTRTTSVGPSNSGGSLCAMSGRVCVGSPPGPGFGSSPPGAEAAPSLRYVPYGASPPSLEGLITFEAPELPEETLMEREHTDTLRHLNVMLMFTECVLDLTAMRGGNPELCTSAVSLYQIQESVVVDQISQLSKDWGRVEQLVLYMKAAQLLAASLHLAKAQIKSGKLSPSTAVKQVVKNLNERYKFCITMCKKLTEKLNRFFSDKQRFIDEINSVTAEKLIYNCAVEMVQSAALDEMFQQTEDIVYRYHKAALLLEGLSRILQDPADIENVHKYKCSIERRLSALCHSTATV
Protocol: as §1

[9] = molecular target: TIE1 (Homo sapiens (Human), UniProt P35590); experiment: as above
Protocol: as §1

[10] = molecular target: NTRK2 (Homo sapiens (Human), UniProt Q16620); experiment: as above
Chain of NTRK2 (Q16620 32-822): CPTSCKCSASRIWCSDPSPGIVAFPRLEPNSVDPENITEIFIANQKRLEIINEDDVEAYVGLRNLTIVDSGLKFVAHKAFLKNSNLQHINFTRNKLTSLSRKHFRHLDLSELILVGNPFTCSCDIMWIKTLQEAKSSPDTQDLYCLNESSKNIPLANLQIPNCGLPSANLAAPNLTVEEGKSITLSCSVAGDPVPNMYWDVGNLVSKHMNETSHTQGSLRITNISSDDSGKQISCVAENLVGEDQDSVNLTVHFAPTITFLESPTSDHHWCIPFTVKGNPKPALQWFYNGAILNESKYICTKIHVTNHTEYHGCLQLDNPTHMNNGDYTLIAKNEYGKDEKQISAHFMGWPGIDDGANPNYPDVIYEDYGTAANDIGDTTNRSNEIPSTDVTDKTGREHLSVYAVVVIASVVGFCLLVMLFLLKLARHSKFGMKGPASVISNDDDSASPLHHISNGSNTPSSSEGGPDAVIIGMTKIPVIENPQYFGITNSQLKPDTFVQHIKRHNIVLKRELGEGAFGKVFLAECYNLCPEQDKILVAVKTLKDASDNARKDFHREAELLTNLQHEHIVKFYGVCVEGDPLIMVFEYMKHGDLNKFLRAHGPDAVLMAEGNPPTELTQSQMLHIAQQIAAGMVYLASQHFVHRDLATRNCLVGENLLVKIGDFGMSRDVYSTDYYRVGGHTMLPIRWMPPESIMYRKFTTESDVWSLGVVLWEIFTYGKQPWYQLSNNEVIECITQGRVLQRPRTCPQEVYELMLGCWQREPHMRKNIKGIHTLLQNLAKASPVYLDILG
Protocol: as §1

[11] = molecular target: NTRK1 (Homo sapiens (Human), UniProt P04629); experiment: as above
Protocol: as §1

[12] = molecular target: DYRK1A (Homo sapiens (Human), UniProt Q13627); experiment: as above
Protocol: as §1

[13] = molecular target: STK36 (Homo sapiens (Human), UniProt Q9NRP7); experiment: as above
Protocol: as §1

[14] = molecular target: FLT3 (Homo sapiens (Human), UniProt P36888); experiment: as above
Protocol: as §1

[15] = Brain uptake in mice 24 hours post-administration; format: in vivo, mouse

## CN(Cc1ccn2ncc(C(N)=O)c2c1)C(=O)Nc1ccc(OC(F)(F)F)cc1 [CDD-3031, 5-((1-methyl-3-(4-(trifluoromethoxy)phenyl)ureido)methyl)pyrazolo[1,5-a]pyridine-3-carboxamide]
[1]; average, read-out: WEE1 kinase occupancy, Average (%)
  receptor occupancy at 1 µM: 4.94%
[1]; replicate 1, read-out: WEE1 kinase occupancy, Replicate 1 (%)
  receptor occupancy at 1 µM: 9.23%
[1]; replicate 2, read-out: WEE1 kinase occupancy, Replicate 2 (%)
  receptor occupancy at 1 µM: 0.65%
[2]; average, read-out: MAP3K19 kinase occupancy, Average (%)
  receptor occupancy at 1 µM: 13.3%
[2]; replicate 1, read-out: MAP3K19 kinase occupancy, Replicate 1 (%)
  receptor occupancy at 1 µM: 53.3%
[2]; replicate 2, read-out: MAP3K19 kinase occupancy, Replicate 2 (%)
  receptor occupancy at 1 µM: -26.6%
[3]; average, read-out: CDKL1 kinase occupancy, Average (%)
  receptor occupancy at 1 µM: 8.23%
[3]; replicate 1, read-out: CDKL1 kinase occupancy, Replicate 1 (%)
  receptor occupancy at 1 µM: 2.8%
[3]; replicate 2, read-out: CDKL1 kinase occupancy, Replicate 2 (%)
  receptor occupancy at 1 µM: 13.7%
[4]; average, read-out: CSNK1A1L kinase occupancy, Average (%)
  receptor occupancy at 1 µM: 4.58%
[4]; replicate 1, read-out: CSNK1A1L kinase occupancy, Replicate 1 (%)
  receptor occupancy at 1 µM: 9.24%
[4]; replicate 2, read-out: CSNK1A1L kinase occupancy, Replicate 2 (%)
  receptor occupancy at 1 µM: -0.08%
[5]; average, read-out: STK11 kinase occupancy, Average (%)
  receptor occupancy at 1 µM: 5.85%
[5]; replicate 1, read-out: STK11 kinase occupancy, Replicate 1 (%)
  receptor occupancy at 1 µM: 6.96%
[5]; replicate 2, read-out: STK11 kinase occupancy, Replicate 2 (%)
  receptor occupancy at 1 µM: 4.74%
[6]; average, read-out: AURKB kinase occupancy, Average (%)
  receptor occupancy at 1 µM: 7.37%
[6]; replicate 1, read-out: AURKB kinase occupancy, Replicate 1 (%)
  receptor occupancy at 1 µM: 3.71%
[6]; replicate 2, read-out: AURKB kinase occupancy, Replicate 2 (%)
  receptor occupancy at 1 µM: 11%
[7]; average, read-out: ITK kinase occupancy, Average (%)
  receptor occupancy at 1 µM: 5.61%
[7]; replicate 1, read-out: ITK kinase occupancy, Replicate 1 (%)
  receptor occupancy at 1 µM: 14.2%
[7]; replicate 2, read-out: ITK kinase occupancy, Replicate 2 (%)
  receptor occupancy at 1 µM: -2.94%
[8]; average, read-out: ULK2 kinase occupancy, Average (%)
  receptor occupancy at 1 µM: 4.48%
[8]; replicate 1, read-out: ULK2 kinase occupancy, Replicate 1 (%)
  receptor occupancy at 1 µM: -5.12%
[8]; replicate 2, read-out: ULK2 kinase occupancy, Replicate 2 (%)
  receptor occupancy at 1 µM: 14.1%
[9]; average, read-out: TIE1 kinase occupancy, Average (%)
  receptor occupancy at 1 µM: 14%
[9]; replicate 1, read-out: TIE1 kinase occupancy, Replicate 1 (%)
  receptor occupancy at 1 µM: 8.54%
[9]; replicate 2, read-out: TIE1 kinase occupancy, Replicate 2 (%)
  receptor occupancy at 1 µM: 19.5%
[10]; average, read-out: NTRK2 kinase occupancy, Average (%)
  receptor occupancy at 1 µM: 92.9%
[10]; replicate 1, read-out: NTRK2 kinase occupancy, Replicate 1 (%)
  receptor occupancy at 1 µM: 94.6%
[10]; replicate 2, read-out: NTRK2 kinase occupancy, Replicate 2 (%)
  receptor occupancy at 1 µM: 91.2%
[11]; average, read-out: NTRK1 kinase occupancy, Average (%)
  receptor occupancy at 1 µM: 73.2%
[11]; replicate 1, read-out: NTRK1 kinase occupancy, Replicate 1 (%)
  receptor occupancy at 1 µM: 71.4%
[11]; replicate 2, read-out: NTRK1 kinase occupancy, Replicate 2 (%)
  receptor occupancy at 1 µM: 75%
[12]; average, read-out: DYRK1A kinase occupancy, Average (%)
  receptor occupancy at 1 µM: 6.5%
[12]; replicate 1, read-out: DYRK1A kinase occupancy, Replicate 1 (%)
  receptor occupancy at 1 µM: 8.58%
[12]; replicate 2, read-out: DYRK1A kinase occupancy, Replicate 2 (%)
  receptor occupancy at 1 µM: 4.42%
[13]; average, read-out: STK36 kinase occupancy, Average (%)
  receptor occupancy at 1 µM: 4.82%
[13]; replicate 1, read-out: STK36 kinase occupancy, Replicate 1 (%)
  receptor occupancy at 1 µM: -3.75%
[13]; replicate 2, read-out: STK36 kinase occupancy, Replicate 2 (%)
  receptor occupancy at 1 µM: 13.4%
[14]; average, read-out: FLT3 kinase occupancy, Average (%)
  receptor occupancy at 1 µM: 7.12%
[14]; replicate 1, read-out: FLT3 kinase occupancy, Replicate 1 (%)
  receptor occupancy at 1 µM: -10.3%
[14]; replicate 2, read-out: FLT3 kinase occupancy, Replicate 2 (%)
  receptor occupancy at 1 µM: 24.6%
[15]; brain and plasma 24 hours post-administration
  brain uptake relative to controls: low brain penetration; also recorded: relatively low brain uptake compared to chlorpromazine (positive control), but a high uptake as compared to hydroxyzine (negative control)
[15]; mouse, brain, 24 h, read-out: Brain Concentration at 24 h (ng/mg)
  concentration at 24 h: 350 ng/g
